Patent US20050124021A1 (priority 2000, published 2005)

What was measured:
[1] = target: T1, Rv1170 (Mycobacterium tuberculosis, UniProt P9WJN3); type: biochemical, M. tuberculosis
[2] = test system: M. smegmatis strain 49::H37Rv A18
[3] = target: T1, Rv1170; type: biochemical, M. tuberculosis; remark: listed apart in the source

T1 sequence (P9WJN3 whole entry, looked up): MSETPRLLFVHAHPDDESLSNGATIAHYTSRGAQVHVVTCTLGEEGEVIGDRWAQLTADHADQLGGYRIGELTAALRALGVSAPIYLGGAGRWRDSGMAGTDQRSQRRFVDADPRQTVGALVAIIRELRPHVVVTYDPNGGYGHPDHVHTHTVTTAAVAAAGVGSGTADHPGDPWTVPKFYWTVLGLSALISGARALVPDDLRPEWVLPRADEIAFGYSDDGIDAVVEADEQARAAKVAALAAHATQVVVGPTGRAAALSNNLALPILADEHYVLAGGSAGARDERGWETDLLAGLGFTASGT

Row | Structure (SMILES) | Activity, deacetylase reaction (analysis for amine / deacetylase product) [1] | Decrease in reactivity versus GlcNAc-Ins (removal of inositol residue) [1] | Reduction of the peroxide sensitivity of mutant 49 [2] | Activity, amidase cleavage (analysis for AcCySmB or AcCys) [3] | Deacetylated by the invention deacetylase [1]
1 | CC(=O)N[C@H]1C(O)O[C@H](CO)[C@@H](O)[C@@H]1O (stereo partly drawn) [GlcNAc, N-acetylglucosamine] | 0.087 ± 0.005 nmol min^−1 mg of protein^−1 | more than 300 fold | – | – | –
2 | OO [H2O2, hydrogen peroxide] | – | – | by a factor of two | – | –
3 | CC(=O)N[C@@H](CS)C(=O)N[C@H]1[C@@H](OC2[C@H](O)[C@H](O)C(O)[C@H](O)[C@H]2O)O[C@H](CO)[C@@H](O)[C@@H]1O (stereo partly drawn) [MSH, 1-D-myo-inosityl-2-(N-acetylcysteinyl)amido-2-deoxy-α-D-glucopyranoside] | <10^−4 nmol min^−1 mg of protein^−1 | – | – | 0.002 ± 0.001 nmol min^−1 mg of protein^−1 | neither MSH nor MSmB is deacetylated
